Experimental data from ChEMBL document CHEMBL1140084, “Discovery and evaluation of 4-(2-(4-chloro-1H-pyrazol-1-yl)ethylamino)-3-(6-(1-(3-fluoropropyl)piperidin-4-yl)-4-methyl-1H-benzo[d]imidazol-2-yl)pyridin-2(1H)-one (BMS-695735), an orally efficacious inhibitor of insulin-like growth factor-1 receptor kinase with broad spectrum in vivo antitumor …” (J Med Chem, 2008).

How the values were obtained:
[1] = biological target: T1, Nuclear receptor subfamily 1 group I member 2 (Homo sapiens, UniProt O75469); experiment: Induction of PXR transactivation
T1 sequence (O75469 whole entry): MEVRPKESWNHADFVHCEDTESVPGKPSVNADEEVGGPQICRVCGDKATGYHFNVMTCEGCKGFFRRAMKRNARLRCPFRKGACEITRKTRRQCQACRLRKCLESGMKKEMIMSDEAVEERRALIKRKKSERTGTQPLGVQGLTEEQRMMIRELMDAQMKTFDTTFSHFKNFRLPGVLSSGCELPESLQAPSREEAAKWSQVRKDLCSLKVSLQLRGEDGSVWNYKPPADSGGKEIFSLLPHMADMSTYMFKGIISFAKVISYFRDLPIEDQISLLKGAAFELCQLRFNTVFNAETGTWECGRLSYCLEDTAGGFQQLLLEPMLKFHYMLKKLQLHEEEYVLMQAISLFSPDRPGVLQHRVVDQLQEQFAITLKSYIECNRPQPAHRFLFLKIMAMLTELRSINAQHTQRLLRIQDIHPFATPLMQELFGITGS

[2] = Antiproliferative activity against transgenic mouse SAL cells overexpressing human IGF1R assessed as [3H]thymidine incorporation after 72 hrs
Cytochrome P450 3A4 = Cytochrome P450 3A4 (Homo sapiens, UniProt P08684); experiment: Inhibition of human recombinant CYP3A4 in human liver microsomes using BFC as a substrate
[3] = AUC in mouse at 20 mg/kg after 4 hrs; type: ADME, organism-based; set-up: time < 4 hr, dose 20 mg/kg; details: plasma
[4] = Protein binding in mouse plasma at 10 uM by equilibrium dialysis; type: ADME, cell-free; details: read-out: PPB (converted)

Cytochrome P450 3A4, sequence (P08684 whole entry): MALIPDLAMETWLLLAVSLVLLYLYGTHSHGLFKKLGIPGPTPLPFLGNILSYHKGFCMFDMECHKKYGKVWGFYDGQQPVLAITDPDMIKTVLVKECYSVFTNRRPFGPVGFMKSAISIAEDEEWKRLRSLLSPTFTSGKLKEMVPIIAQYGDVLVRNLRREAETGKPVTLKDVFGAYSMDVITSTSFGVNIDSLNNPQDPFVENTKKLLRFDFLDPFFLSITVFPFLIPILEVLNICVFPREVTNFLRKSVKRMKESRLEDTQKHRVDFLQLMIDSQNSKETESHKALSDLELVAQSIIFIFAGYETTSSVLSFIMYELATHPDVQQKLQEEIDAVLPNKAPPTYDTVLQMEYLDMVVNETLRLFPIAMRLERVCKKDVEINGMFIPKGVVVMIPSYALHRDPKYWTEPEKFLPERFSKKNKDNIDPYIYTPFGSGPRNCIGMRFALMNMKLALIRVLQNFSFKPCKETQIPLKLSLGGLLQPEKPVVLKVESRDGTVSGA

Structure (SMILES)	EC20 [1]	IC50 [2]	IC50 (Cytochrome P450 3A4)	AUC at 4 h [3]	fraction unbound at 10 µM [4]
COCCN1CCC(c2cc(C)c3nc(-c4c(NC[C@@H](O)c5cccc(Cl)c5)cc[nH]c4=O)[nH]c3c2)CC1	> 50 µM	0.217 µM	11 µM	–	–
COCCN1CCC(c2cc(C)c3nc(-c4c(NCCn5cc(Cl)cn5)cc[nH]c4=O)[nH]c3c2)CC1	> 50 µM	0.046 µM	19.5 µM	1.8 µM·h	0.038
Cc1cc(C2CCN(C)CC2)cc2[nH]c(-c3c(NCCn4cc(Cl)cn4)cc[nH]c3=O)nc12	> 50 µM	0.162 µM	40 µM	0.4 µM·h	–
COc1ccc([C@H](O)CNc2cc[nH]c(=O)c2-c2nc3c(C)cc(C4CCN(CCCF)CC4)cc3[nH]2)cc1Cl	> 50 µM	0.04 µM	10 µM	0.28 µM·h	–
Cc1cc(C2CCN(CCO)CC2)cc2[nH]c(-c3c(NCCn4cc(Cl)cn4)cc[nH]c3=O)nc12	> 50 µM	0.241 µM	23 µM	0.1 µM·h	–
